According to PubChem BioAssay (NCI):
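Interpolation was linear, between the two tested concentrations surrounding the appropriate level; five concentrations were tested over 48 hours in 96-well plates. The concentration for full growth arrest is given as TGI.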

How the values were obtained:
Test in all cases: DTP human tumour cell line panel, 48 h
[1] = test system: XF 498 CNS
[2] = test system: MOLT-4 leukemia
[3] = test system: HL-60(TB) leukemia
[4] = test system: SF-295 CNS
[5] = test system: ACHN renal
[6] = test system: HOP-18 NSCLC
[7] = test system: SF-268 CNS
[8] = test system: SK-MEL-5 melanoma
[9] = test system: CCRF-CEM leukemia
[10] = test system: HOP-92 NSCLC
[11] = test system: SK-MEL-28 melanoma
[12] = test system: DMS 114 small cell lung
[13] = test system: HCT-116 colon
[14] = test system: MALME-3M melanoma
[15] = test system: A498 renal
[16] = test system: OVCAR-5 ovarian
[17] = test system: HCT-15 colon
[18] = test system: CAKI-1 renal
[19] = test system: OVCAR-3 ovarian
[20] = test system: OVCAR-4 ovarian
[21] = test system: M14 melanoma
[22] = test system: KM20L2 colon
[23] = test system: TK-10 renal
[24] = test system: 786-0 renal
[25] = test system: EKVX NSCLC
[26] = test system: SK-OV-3 ovarian
[27] = test system: SNB-19 CNS
[28] = test system: IGROV1 ovarian
[29] = test system: UO-31 renal
[30] = test system: M19-MEL melanoma
[31] = test system: SNB-78 CNS
[32] = test system: SW-620 colon
[33] = test system: NCI-H23 lung
[34] = test system: COLO 205 colon
[35] = test system: HT29 colon
[36] = test system: UACC-257 melanoma
[37] = test system: DLD-1 colon
[38] = test system: RXF 393 renal
[39] = test system: NCI-H460 lung
[40] = test system: SN12C renal
[41] = test system: U251 CNS
[42] = test system: LXFL 529 NSCLC
[43] = test system: SF-539 CNS
[44] = test system: SNB-75 CNS
[45] = test system: OVCAR-8 ovarian
[46] = test system: K-562 leukemia
[47] = test system: UACC-62 melanoma
[48] = test system: A549 NSCLC
[49] = test system: HOP-62 NSCLC
[50] = test system: DMS 273 small cell lung
[51] = test system: RPMI-8226 leukemia
[52] = test system: LOX IMVI melanoma
[53] = test system: RXF-631 renal
[54] = test system: KM12 colon
[55] = test system: HCC-2998 colon
[56] = test system: NCI-H226 lung
[57] = test system: SR leukemia
[58] = test system: NCI-H522 lung
[59] = test system: SK-MEL-2 melanoma

CCN(CC)c1ccc(C2N3CCCCC3[C@@H]3c4[nH]c5ccccc5c4CCN23)cc1 (stereo partly drawn) gave a TGI [1] of 41 µM, a TGI [2] greater than 100 µM and a TGI [3] of 30.8 µM. The TGI [4] was greater than 100 µM, the TGI [5] was 74.7 µM and the TGI [6] was greater than 100 µM. For the same compound, the TGI [7] was 69 µM, the TGI [8] was 31.1 µM and the TGI [9] was 63.9 µM. For the same compound, the TGI [10] was greater than 100 µM, the TGI [11] was 58 µM and the TGI [12] was 33.1 µM. The TGI [13] was 33.9 µM, the TGI [14] was 47.4 µM and the TGI [15] was 28.2 µM. For the same compound, the TGI [16] was greater than 100 µM, the TGI [17] was greater than 100 µM and the TGI [18] was greater than 100 µM. It also gave a TGI [19] of 71.4 µM, a TGI [20] greater than 100 µM and a TGI [21] of 64.8 µM. It also gave a TGI [22] greater than 100 µM, a TGI [23] of 86.1 µM and a TGI [24] greater than 100 µM. The TGI [25] was greater than 100 µM, the TGI [26] was greater than 100 µM and the TGI [27] was greater than 100 µM. The TGI [28] was greater than 100 µM, the TGI [29] was greater than 100 µM and the TGI [30] was 57.1 µM. For the same compound, the TGI [31] was 61.3 µM, the TGI [32] was greater than 100 µM and the TGI [33] was greater than 100 µM. The TGI [34] was 93.2 µM, the TGI [35] was 36.3 µM and the TGI [36] was 77.8 µM. For the same compound, the TGI [37] was greater than 100 µM, the TGI [38] was 44.1 µM and the TGI [39] was 55.5 µM. The TGI [40] was 51.6 µM, the TGI [41] was greater than 100 µM and the TGI [42] was 55.6 µM. For the same compound, the TGI [43] was 41.6 µM, the TGI [44] was 29.1 µM and the TGI [45] was greater than 100 µM. The TGI [46] was 61.3 µM, the TGI [47] was 36.6 µM and the TGI [48] was greater than 100 µM. It also gave a TGI [49] greater than 100 µM, a TGI [50] greater than 100 µM and a TGI [51] greater than 100 µM.
Work on COc1ccc(NC(=O)C(=O)Cc2ccc([N+](=O)[O-])c([N+](=O)[O-])c2CC(=O)C(=O)Nc2ccc(OC)cc2OC)c(OC)c1 yielded a TGI [52] greater than 100 µM, a TGI [2] greater than 100 µM and a TGI [3] greater than 100 µM. For the same compound, the TGI [4] was greater than 100 µM, the TGI [5] was greater than 100 µM and the TGI [6] was greater than 100 µM. It also gave a TGI [7] greater than 100 µM, a TGI [9] greater than 100 µM and a TGI [10] greater than 100 µM. It also gave a TGI [11] greater than 100 µM, a TGI [12] greater than 100 µM and a TGI [13] greater than 100 µM. The TGI [14] was greater than 100 µM, the TGI [15] was greater than 100 µM and the TGI [16] was greater than 100 µM. For the same compound, the TGI [17] was greater than 100 µM, the TGI [18] was greater than 100 µM and the TGI [19] was greater than 100 µM. It also gave a TGI [20] greater than 100 µM, a TGI [21] greater than 100 µM and a TGI [22] greater than 100 µM. For the same compound, the TGI [23] was greater than 100 µM, the TGI [53] was greater than 100 µM and the TGI [24] was greater than 100 µM. The TGI [54] was greater than 100 µM, the TGI [25] was greater than 100 µM and the TGI [55] was greater than 100 µM. For the same compound, the TGI [26] was greater than 100 µM, the TGI [56] was greater than 100 µM and the TGI [27] was greater than 100 µM. The TGI [28] was greater than 100 µM, the TGI [29] was greater than 100 µM and the TGI [30] was greater than 100 µM. It also gave a TGI [31] greater than 100 µM, a TGI [57] greater than 100 µM and a TGI [32] greater than 100 µM. It also gave a TGI [33] greater than 100 µM, a TGI [34] greater than 100 µM and a TGI [35] greater than 100 µM. For the same compound, the TGI [36] was greater than 100 µM, the TGI [37] was greater than 100 µM and the TGI [38] was greater than 100 µM. It also gave a TGI [39] greater than 100 µM, a TGI [40] greater than 100 µM and a TGI [41] greater than 100 µM. For the same compound, the TGI [42] was greater than 100 µM, the TGI [44] was greater than 100 µM and the TGI [45] was greater than 100 µM. For the same compound, the TGI [46] was greater than 100 µM, the TGI [47] was greater than 100 µM and the TGI [48] was greater than 100 µM. The TGI [49] was greater than 100 µM, the TGI [50] was greater than 100 µM and the TGI [58] was greater than 100 µM. The TGI [51] was greater than 100 µM.
In the case of N#CC(/C(CCCC(=O)Nc1cccc([N+](=O)[O-])c1)=N\NC(=O)c1c(O)ccc2ccccc12)c1nc2ccccc2s1 (stereo not drawn), the TGI [1] is reported as greater than 100 µM, the TGI [59] is reported as greater than 100 µM and the TGI [2] is reported as greater than 100 µM. The TGI [3] was 24.1 µM, the TGI [4] was greater than 100 µM and the TGI [5] was greater than 100 µM. For the same compound, the TGI [6] was greater than 100 µM, the TGI [7] was greater than 100 µM and the TGI [8] was 93.1 µM. For the same compound, the TGI [9] was greater than 100 µM, the TGI [10] was greater than 100 µM and the TGI [11] was greater than 100 µM. For the same compound, the TGI [12] was 34.5 µM, the TGI [13] was greater than 100 µM and the TGI [14] was greater than 100 µM. The TGI [15] was greater than 100 µM, the TGI [16] was greater than 100 µM and the TGI [18] was greater than 100 µM. For the same compound, the TGI [19] was greater than 100 µM, the TGI [20] was greater than 100 µM and the TGI [21] was greater than 100 µM. The TGI [22] was greater than 100 µM, the TGI [24] was greater than 100 µM and the TGI [54] was greater than 100 µM. The TGI [25] was greater than 100 µM, the TGI [26] was greater than 100 µM and the TGI [56] was 72 µM. It also gave a TGI [27] greater than 100 µM, a TGI [28] greater than 100 µM and a TGI [29] greater than 100 µM. It also gave a TGI [30] of 46.6 µM, a TGI [31] greater than 100 µM and a TGI [57] greater than 100 µM. The TGI [32] was greater than 100 µM, the TGI [33] was greater than 100 µM and the TGI [34] was greater than 100 µM. The TGI [35] was greater than 100 µM, the TGI [36] was greater than 100 µM and the TGI [37] was greater than 100 µM. It also gave a TGI [38] greater than 100 µM, a TGI [39] greater than 100 µM and a TGI [40] greater than 100 µM. It also gave a TGI [41] greater than 100 µM, a TGI [42] greater than 100 µM and a TGI [43] of 66.3 µM. For the same compound, the TGI [44] was greater than 100 µM, the TGI [45] was greater than 100 µM and the TGI [46] was greater than 100 µM. For the same compound, the TGI [48] was greater than 100 µM, the TGI [49] was 95.4 µM and the TGI [50] was 68.3 µM. The TGI [58] was greater than 100 µM.
